Results as given in patent US12187703B2, “Crystalline forms of N-(3-(2-(2-hydroxyethoxy)-6-morpholinopyridin-4-yl)-4-methvlphenyl)-2 (trifluoromethyl)isonicotinamide as Raf inhibitors for the treatment of cancer” (NOVARTIS AG, priority 2019, dated 2025).
In brackets after ≈: the same amount, converted by molar mass. Where two headings read alike, the source gives them in different places.

Key:
Assay type in all cases: physicochemical
[1] = Humidity exposure of amorphous form; conditions: ambient humidity or 92% RH
[2] = Solubility at 25° C., 24 hours slurry; conditions: for Final pH: 25° C.; for solubility at 24 h: 25 °C, thermodynamic from solid, read-out: Solubility at 25° C.
Method: A sample was weighed in a glass vial and solvent added to make a slurry followed by stirring or shaking at 25° C. for 24 hours. The amount of sample and solvents depends on the target concentration, e.g. if the target concentration is 10 mg/mL, the weight of the sample should be 10 mg and the amount of solvent volume should be 1 mL. The solid and liquid are separated by centrifugation at 13000 rpm for 2 minutes with 0.2 μm membrane. The filtrate is then used for the solubility test after appropriate dilution. The diluent is from the UPLC method. The solids obtained after equilibration were analyzed by XRPD after being dried at 40° C. under vacuum for 2 hours. DSC/TGA analysis was conducted for selected samples.

[3] = Stability testing, solid state bulk (UPLC, color, XRPD, TGA)
Method: (§1) X-ray powder diffraction (XRPD) analysis of all polymorph forms was performed using a Bruker D8 Discover x-ray diffractometer with XYZ stage. Measurements were taken at about 40 kV and 1 mA under the following conditions:
(§2) Crystalline Monohydrate Form HA was analysed by thermogravimetric analysis (TGA) using a Discovery Thermogravimetric Analysis Calorimeter from TA instruments under the following conditions (see Table 6).
(§3) No notable change in chemical purity, nor change in XRPD, nor change in TGA, was observed.

[4] = as above; design: key: A: No change of color; B: Slight discoloration
Method: as §1, §2, §3

[5] = Hygroscopicity, storage and solubility conclusions; conditions: for Hygroscopicity: non-hygroscopic defined as water uptake at most 2 w-%, 0 to 95% RH, 25° C. (GMS/DVS)
Text: The term “non-hygroscopic” as used herein refers to a compound showing a water uptake of at most 2 w-% in the sorption cycle when measured with GMS (or DVS) at a relative humidity in the range of from 0 to 95% RH and a temperature of (25.0±0.1) ° C., based on the weight of the compound. Non-hygroscopic is preferably up to 0.2%.

[6] = Stability testing, solid state bulk (UPLC, color, XRPD, TGA); design: key: A: No change of color; conditions: Solid state
Method: as §1, §2, §3

[7] = Behaviour under compression, grinding and granulation with water
[8] = Bulk density and flowability with ring shear tester; conditions: listed as Modification A
Method: (§4) Pilot manufacture batches producing Modification HA and Form A on kilogram scale were compared for their respective bulk powder properties. The particle size distribution (PSD) was determined according to the corresponding method for release. Other measurements were performed using technical methods known in the art or as described herein.

[9] = Water activity experiments of Form A
Method: About 100 mg of Form A is equilibrated with 0.5 mL solvent by stirring at RT or 50° C. The slurries are filtered. The wet cake is investigated by XRPD.

[10] = Particle size distribution by Fraunhofer light diffraction; conditions: pilot manufacture batch, kilogram scale; listed as Modification A
Method: as §4
A few drops of the dispersing aid were added to an appropriate amount of test substance. The mixture was mixed intensively, e.g. on a vortex mixer, in order to wet the substance thoroughly and to form a smooth and homogeneous paste. The resultant paste was diluted with the dispersion liquid to a final volume of 3-6 ml and the dispersion mixed again. The cumulative volume distribution was determined using a laser light diffraction instrument as stated above. The parameters could be adjusted accordingly so that the test dispersion is representative, homogeneous and well dispersed.
Particle sizes were determined at the undersize values of 10%, 50% and 90% (×10, ×50, ×90), and additional values in question, from the cumulative volume distribution.

[11] = Solid state, 1 week 50° C., closed container
[12] = Solid state, 1 week 50° C./75% r.h.
[13] = Solid state, 1 week 80° C., closed container
[14] = Solid state, 1 week 80° C./75% r.h.
[15] = Xenon light (approx. 1200 kLuxh)
[16] = 50° C., water 0%/IPA 100%, aw 0.000
[17] = 50° C., water 1%/IPA 99%, aw 0.124
[18] = 50° C., water 3.2%/IPA 96.8%, aw 0.324
[19] = 50° C., water 100%/IPA 0%, aw 1.000
[20] = RT, water 0%/IPA 100%, aw 0.000
[21] = RT, water 100%/IPA 0%, aw 1.000

In the case of `Cc1ccc(NC(=O)c2ccnc(C(F)(F)F)c2)cc1-c1cc(OCCO)nc(N2CCOCC2)c1` [amorphous form, N-(3-(2-(2-hydroxyethoxy)-6-morpholinopyridin-4-yl)-4-methylphenyl)-2-(trifluoromethyl)isonicotinamide], the “Physical form stability under humidity” value [1] was “remains stable and does not convert to HA”.

For `Cc1ccc(NC(=O)c2ccnc(C(F)(F)F)c2)cc1-c1cc(OCCO)nc(N2CCOCC2)c1` [Form B, N-(3-(2-(2-hydroxyethoxy)-6-morpholinopyridin-4-yl)-4-methylphenyl)-2-(trifluoromethyl)isonicotinamide], the “Solubility at 25° C.” value ([2]; 0.01N HCl, pH 2.0) was 141.2 µg/mL (≈ 281 µM), the “Final pH” value ([2]; 0.01N HCl, pH 2.0) was 2.04 and the “Solubility at 25° C.” value ([2]; 0.1N HCl, pH 1.0) was 1026.4 µg/mL (≈ 2040 µM). For the same compound, the “Final pH” value ([2]; 0.1N HCl, pH 1.0) was 1.02, the “Solubility at 25° C.” value ([2]; Acetate buffer, pH 4.7) was less than 0.2 µg/mL and the “Final pH” value ([2]; Acetate buffer, pH 4.7) was 4.78. The “Solubility at 25° C.” value ([2]; Acetonitrile) was greater than 10000 µg/mL, the “Solubility at 25° C.” value ([2]; Borate buffer, pH 9.0) was less than 0.2 µg/mL and the “Final pH” value ([2]; Borate buffer, pH 9.0) was 8.97. The “Solubility at 25° C.” value ([2]; Dichloromethane) was greater than 10000 µg/mL, the “Solubility at 25° C.” value ([2]; Ethanol) was greater than 10000 µg/mL and the “Solubility at 25° C.” value ([2]; Ethyl acetate) was greater than 10000 µg/mL. For the same compound, the “Solubility at 25° C.” value ([2]; FaSSIF, pH 6.5) was 1.4 µg/mL (≈ 2.79 µM), the “Final pH” value ([2]; FaSSIF, pH 6.5) was 6.91 and the “Solubility at 25° C.” value ([2]; FeSSIF, pH 5.8) was 137 µg/mL (≈ 273 µM). For the same compound, the “Final pH” value ([2]; FeSSIF, pH 5.8) was 6.08, the “Solubility at 25° C.” value ([2]; N,N-Dimethylformamide) was greater than 10000 µg/mL and the “Solubility at 25° C.” value ([2]; Phosphate buffer, pH 6.8) was less than 0.2 µg/mL. The “Final pH” value ([2]; Phosphate buffer, pH 6.8) was 6.75, the “Solubility at 25° C.” value ([2]; SGF, pH 2.0) was 2.1 µg/mL (≈ 4.18 µM) and the “Final pH” value ([2]; SGF, pH 2.0) was 2.02. The “Solubility at 25° C.” value ([2]; Water) was less than 0.2 µg/mL, the “Final pH” value ([2]; Water) was 8.11 and the solubility at 24 h ([2]; heptane, organic solvent or mixture, Heptane) was less than 0.2 µg/mL. For the same compound, the “Bulk (XRPD)” value [3, 11] was “no change”, the “DP %, Bulk (UPLC)” value [3, 11] was 2.46% and the “Bulk (XRPD)” value [3, 12] was “no change”. The “DP %, Bulk (UPLC)” value [3, 12] was 2.49%, the “Bulk (XRPD)” value [3, 13] was “no change” and the “DP %, Bulk (UPLC)” value [3, 13] was 2.12%. For the same compound, the “Bulk (XRPD)” value [3, 14] was “changed”, the “DP %, Bulk (UPLC)” value [3, 14] was 3.32% and the “Bulk (XRPD)” value [3, 15] was “no change”. For the same compound, the “DP %, Bulk (HPLC)” value [3, 15] was 3.66%, the “Stability upon exposure to elevated temperature or humidity” value ([3]; degradation products and physical form) was “relatively stable” and the “Color (CL)” value [4, 14] was “B”. For the same compound, the “Color (CL)” value [4, 15] was “B”, the “Relative solubility of forms” value [5] was “more soluble than Form A” and the “Solubility, overall rating” value [5] was “adequate solubility”. The “Stability when stored in bulk quantities” value [5] was “stable when stored in bulk quantities”, the Hygroscopicity [5] was “non-hygroscopic” and the “Color (CL)” value ([6]; 1 week 50° C., closed container) was “A”. The “Color (CL)” value ([6]; 1 week 50° C./75% r.h.) was “A”, the “Color (CL)” value ([6]; 1 week 80° C., closed container) was “A” and the “XRPD pattern upon grinding, compression and granulation with water” value [7] was “did not change”.

With `Cc1ccc(NC(=O)c2ccnc(C(F)(F)F)c2)cc1-c1cc(OCCO)nc(N2CCOCC2)c1` [Form A, N-(3-(2-(2-hydroxyethoxy)-6-morpholinopyridin-4-yl)-4-methylphenyl)-2-(trifluoromethyl)isonicotinamide] the “Solubility at 25° C.” value ([2]; 0.01N HCl, pH 2.0) was 1.4 µg/mL (≈ 2.79 µM), the “Final pH” value ([2]; 0.01N HCl, pH 2.0) was 2.16 and the “Solubility at 25° C.” value ([2]; 0.1N HCl, pH 1.0) was 292.9 µg/mL (≈ 583 µM). For the same compound, the “Final pH” value ([2]; 0.1N HCl, pH 1.0) was 1.07, the “Final pH” value ([2]; Acetate buffer, pH 4.7) was 4.82 and the “Final pH” value ([2]; Borate buffer, pH 9.0) was 9.01. For the same compound, the solubility at 24 h ([2]; FaSSIF, pH 6.5, fassif, FaSSIF, pH 6.5) was 0.8 µg/mL (≈ 1.59 µM), the “Final pH” value ([2]; FaSSIF, pH 6.5) was 6.45 and the “Solubility at 25° C.” value ([2]; FeSSIF, pH 5.8) was 41.3 µg/mL (≈ 82.2 µM). For the same compound, the “Final pH” value ([2]; FeSSIF, pH 5.8) was 5.82, the solubility at 24 h ([2]; N,N-dimethylformamide, organic solvent or mixture, N,N-Dimethylformamide) was greater than 10000 µg/mL and the “Final pH” value ([2]; Phosphate buffer, pH 6.8) was 6.74. The “Solubility at 25° C.” value ([2]; SGF, pH 2.0) was 22 µg/mL (≈ 43.8 µM), the “Final pH” value ([2]; SGF, pH 2.0) was 2.05 and the “Final pH” value ([2]; Water) was 8.93. The solubility at 24 h ([2]; acetate buffer, pH 4.7, aqueous buffer, Acetate buffer, pH 4.7) was less than 0.3 µg/mL, the solubility at 24 h ([2]; acetonitrile, organic solvent or mixture, Acetonitrile) was greater than 10000 µg/mL and the solubility at 24 h ([2]; borate buffer, pH 9, aqueous buffer, Borate buffer, pH 9.0) was less than 0.3 µg/mL. It also gave a solubility at 24 h ([2]; dichloromethane, organic solvent or mixture, Dichloromethane) greater than 10000 µg/mL, a solubility at 24 h ([2]; ethanol, organic solvent or mixture, Ethanol) greater than 10000 µg/mL and a solubility at 24 h ([2]; ethyl acetate, organic solvent or mixture, Ethyl acetate) greater than 10000 µg/mL. For the same compound, the solubility at 24 h ([2]; phosphate buffer, pH 6.8, aqueous buffer, Phosphate buffer, pH 6.8) was less than 0.3 µg/mL, the solubility at 24 h ([2]; water, water, Water) was less than 0.3 µg/mL and the “Bulk flowability with ring shear tester, rating in words” value ([8]; under 1250 Pa normal stress) was ““very cohesive””. The “Technical measurement of bulk flowability with ring shear tester” value ([8]; under 1250 Pa normal stress) was 1.45, the “Technical measurement of bulk density with ring shear tester” value ([8]; under no consolidation stress) was 71 kg/m^3 and the “After 1 d equilibration (wet cake XRPD)” value [9, 16] was “Form A”. For the same compound, the “After 5 d equilibration (wet cake XRPD)” value [9, 16] was “Form A”, the “After 1 d equilibration (wet cake XRPD)” value [9, 17] was “Form A” and the “After 5 d equilibration (wet cake XRPD)” value [9, 17] was “Form A”. The “After 1 d equilibration (wet cake XRPD)” value [9, 18] was “Form A”, the “After 5 d equilibration (wet cake XRPD)” value [9, 18] was “Form A” and the “After 1 d equilibration (wet cake XRPD)” value [9, 19] was “Form A”. For the same compound, the “After 5 d equilibration (wet cake XRPD)” value [9, 19] was “Form A”, the “After 1 d equilibration (wet cake XRPD)” value [9, 20] was “Form A” and the “After 5 d equilibration (wet cake XRPD)” value [9, 20] was “Form A”. The “After 1 d equilibration (wet cake XRPD)” value ([9]; RT, water 1%/IPA 99%, aw 0.120) was “Form A”, the “After 5 d equilibration (wet cake XRPD)” value ([9]; RT, water 1%/IPA 99%, aw 0.120) was “Form A” and the “After 1 d equilibration (wet cake XRPD)” value ([9]; RT, water 3.2%/IPA 96.8%, aw 0.316) was “Form A + HA”. For the same compound, the “After 1 d equilibration (wet cake XRPD)” value [9, 21] was “Form A”, the “After 5 d equilibration (wet cake XRPD)” value [9, 21] was “Form A” and the “Time for complete conversion of Form A to Monohydrate HA” value ([9]; water activity of 0.3, room temperature) was 5 days. The “Relative solubility of forms” value [5] was “more soluble than Form HA”, the “Solubility, overall rating” value [5] was “adequate solubility” and the “Stability when stored in bulk quantities” value [5] was “stable when stored in bulk quantities”. For the same compound, the Hygroscopicity [5] was “non-hygroscopic”, the “Physical form upon granulation with water or compression” value [7] was “remains unchanged” and the Crystallinity when compressed ([7]; pressures of 3 to 6 MPa) was “slight decrease in crystallinity”. For the same compound, the “Diameter X of PSD measured during release, X50” value [10] was “X50: 8 μm” and the “Diameter X of PSD measured during release, X90” value [10] was “X90: 44 μm”.
